# Measurements taken from patent US12508280B2, “Formulations for improving gut health” (DSM IP ASSETS B.V., priority 2018, dated 2025).
# Legend:
# HT29 cells = assay: HT29 cell culture, quantification of immunological biomarkers; format: cell-based; conditions: effluent from 24 h fermentation, vs corresponding control
# Experimental: Since ethanol is known to have antimicrobial effects, two blanks for each type of stock solution were included. As a source of the microbial community, a freshly prepared fecal suspension from the selected donor was added to the reactors. […] All tests, except the blanks, were performed in single repetition, resulting in 40 independent incubations, as specified in Table 1. Incubation conditions of the pre-screening experiment and the final experiment were 48 h at 37° C., under shaking (90 rpm) and anaerobic conditions. DNA were extracted from effluent samples collected from each fermentation flask before (0 h fermentation) and after fermentation (24 h fermentation) and use for microbiome composition analysis by Shotgun sequencing. Effluent samples were collected from each fermentation flask before ([…]), […] cell culture systems.
# For both sets of in vitro experiments, HT29 cells were obtained from American Type Culture Collection (Manassas, VA). Cells were cultured in DMEM supplemented with 10% fetal bovine serum (FBS), 50 units/ml penicillin, 50 μg/ml streptomycin, L-glutamine, and nonessential amino acids (Life Technologies Europe B.V., Zug, Switzerland). Cells were seeded into 12-well plates at 8×10^5 cells per well and used after 2 days of preculture. They were starved in DMEM containing 0.25% FBS for 18 h before treatment. Cells were treated for 24 hours with TNF-α at 100 ng/mL or fermentation supernatants which were sterile filtered and diluted 1:20 in DMEM containing 0.25% FBS. All treatments were done in triplicate. Consequently, cytokines, chemokines and interleukins were quantified in HT29 supernatants using the Luminex Technology (LiquiChip Workstation IS 200, Qiagen, Hilden, Germany) with Bio-Plex Pro Human Cytokine Panel kits (Bio-Rad, Hercules, CA) or with Luminex Screening Assay kits (R&D Systems, Inc., Minneapolis, MN), following the manufacturer's instructions. The data were acquired with the Luminex IS 2.3 software and evaluated with the LiquiChip Analyser software (Qiagen, Hilden, Germany).
# [1] = tested on: genes involved in Acetyl-CoA fermentation to Butyrate pathway; assay: Shotgun sequencing functional analysis: butyrate pathway genes (first set); format: cell-based, human; conditions: 0.2× dose; after 24 h fermentation; vs corresponding control
# Experimental: (§1) Since ethanol is known to have antimicrobial effects, two blanks for each type of stock solution were included. As a source of the microbial community, a freshly prepared fecal suspension from the selected donor was added to the reactors. […] All tests, except the blanks, were performed in single repetition, resulting in 40 independent incubations, as specified in Table 1. Incubation conditions of the pre-screening experiment and the final experiment were 48 h at 37° C., under shaking (90 rpm) and anaerobic conditions. DNA were extracted from effluent samples collected from each fermentation flask before (0 h fermentation) and after fermentation (24 h fermentation) and use for microbiome composition analysis by Shotgun sequencing. Effluent samples were collected from each fermentation flask before (0 h fermentation) and after fermentation (48 h fermentation), sterilized by filtering through 0.22 μm filters and used for short chain fatty acids (SCFA), quantification of immunological biomarkers and in vitro analysis in cell culture systems.
# (§2) For the first set of in vitro experiments, total DNA was extracted from all samples collected throughout the study using the QIAamp DNA stool minikit (Qiagen, Crawley, United Kingdom) according to the manufacturer's instructions, apart from addition of a bead-beating step and increasing the lysis temperature to 95° C. as described previously (McCormack et al., 2018).
# (§3) After DNA isolation, DNA was quantified using the Qubit High Sensitivity DNA assay (Thermo Fisher). Whole metagenome libraries were then prepared using the Illumina Nextera XT kit (Illumina) in accordance with the manufacturer's instructions, with the following modifications: Firstly, tagmentation time was increased to 7 min and secondly, following incorporation of indices and Ampure purification of the products, the samples were each individually sized by running on an Agilent High Sensitivity Chip (Agilent) and quantified using the Qubit High Sensitivity DNA assay (Thermo Fisher) in accordance with Teagasc Sequencing Platform SOPs. The samples were then pooled equimolarly and sequenced on the Illumina NextSeq 500 with a NextSeq 500/550 v2 high-output reagent kit (300 cycles). All sequencing was done in the Teagasc sequencing facility in accordance with standard Illumina sequencing protocols.
# (§4) Delivered raw FASTQ sequence files were quality checked as follows: poor quality and duplicate read removal, as well as trimming was implemented using a combination of SAM and Picard tools. Taxonomy was assigned to the reads using the Kraken software and functional analysis was performed with Super focus.
# [2] = tested on: fecal microbial community; assay: Microbiome composition by shotgun sequencing: alpha diversity (first set); format: cell-based, human; conditions: after 24 h fermentation, vs corresponding control
# Experimental: as §1, §2, §3, §4
# [3] = tested on: fecal suspension from the selected donor; assay: Intestinal batch fermentation, SCFA production (first set); format: cell-based, human; conditions: after 48 h fermentation, vs corresponding control
# Experimental: In a first set of in vitro experiments at the start of intestinal batch fermentation incubation, all test ingredients were added from stock solutions to the modified nutritional medium, containing (g/l): 2.5 K2HPO4, 10.9 KH2PO4, 2 NaHCO3, 2 yeast extract, 2 peptone, 1 mucin, 0.5 cysteine, 2 Tween 80, 2 glucose, 2 starch, 2 cellobiose, 0.1 NaCl, 0.01 MgSO4·7H2O, 0.01 CaCl2·6H2O, 0.05 hemin, 0.5 bile salts.
# The other compounds were prepared in ethanol: • Vitamin K1 (VK1), • MEG-3 0080 EE Oil (MEG-3 0080 EE), • MEG-3 4535 EE Oil (MEG-3 4535 EE), • MEG-3 8000 EE Oil (MEG-3 8000 EE).
# as §1
# Short chain fatty acids (SCFA) are an assessment of the microbial carbohydrate metabolism (acetate, propionate and butyrate) or protein metabolism (branched SCFA) and can be compared to typical fermentation patterns for normal GI microbiota. Samples for SCFA analysis were analyzed after 0, 6, 24 and 48 h of incubation for both set of in vitro experiments, above.
# SCFA were extracted from the samples with diethyl ether, after the addition of 2-methyl hexanoic acid as an internal standard. Extracts were analysed using a GC-2014 gas chromatograph (Shimadzu's-Hertogenbosch, the Nether-lands), equipped with a capillary fatty acid-free EC-1000Econo-Cap column (dimensions: […]×0.53 mm, film thickness […]; Alltech, Laarne, Belgium), a flame ionization detector and a split injector. The injection volume was […] and the temperature profile was set from 110 to 160° C., with a temperature increase of 6° C. min-1. The carrier gas was nitrogen and the temperature of the injector and detector were […] and 220° C., respectively. The production of unbranched and branched SCFA was calculated by summing the molar concentrations of acetate, propionate, butyrate, valerate and caproate, and summing isobutyrate, isovalerate and isocaproate molar concentrations, respectively. The total SCFA production was defined as the sum of unbranched and branched SCFA.
# [4] = tested on: Co-cultures of Caco-2 and HT29-MTX-E12 cells; assay: Barrier integrity, leaky gut model, apical stressor Rhamnolipids; format: cell-based; conditions: 48 h minus 0 h fermentation samples, vs corresponding control
# Bifidobacterium = assay: Microbiome composition by shotgun sequencing: Bifidobacterium (first set); format: cell-based, human; conditions: after 24 h fermentation, vs corresponding control
# Experimental: as §1, §2, §3, §4
structure (smiles),measurement,setting,value
"Nc1nc2ncc(CNc3ccc(C(=O)N[C@@H](CCC(=O)O)C(=O)O)cc3)nc2c(=O)[nH]1 [folic acid, Folic acid]",IL-8 production by HT29 cells,HT29 cells; 0.2× dose,increase IL-8 production
same,IL-8 production by HT29 cells,HT29 cells; 5× dose,increase IL-8 production
same,relative abundance of genes involved in Acetyl-CoA fermentation to Butyrate pathway,[1],increase relative abundance
same,microbiome alpha diversity (Shannon diversity index),[2]; 0.2× dose,increase microbiome diversity
same,microbiome alpha diversity (Shannon diversity index),[2]; 1× dose,increase microbiome diversity
same,acetate production,[3]; 0.2× dose,increase acetate production
same,butyrate production,[3]; 0.2× dose,increase butyrate production
same,propionate production,[3]; 0.2× dose,increase propionate production
same,total SCFAs production,[3]; 0.2× dose,increase total SCFAs production
same,acetate production,[3]; 1× dose,increase acetate production
same,butyrate production,[3]; 1× dose,increase butyrate production
same,propionate production,[3]; 1× dose,increase propionate production
same,total SCFAs production,[3]; 1× dose,increase total SCFAs production
same,acetate production,[3]; 5× dose,increase acetate production
same,butyrate production,[3]; 5× dose,increase butyrate production
same,propionate production,[3]; 5× dose,increase propionate production
same,total SCFAs production,[3]; 5× dose,increase total SCFAs production
same,"TEER, apical induction of leaky gut cellular model",[4]; 0.2× dose,increase TEER
same,"TEER, apical induction of leaky gut cellular model",[4]; 1× dose,increase TEER
same,Bifidobacterium relative abundance,Bifidobacterium; 0.2× dose,increase Bifidobacterium relative abundance
same,Bifidobacterium relative abundance,Bifidobacterium; 1× dose,increase Bifidobacterium relative abundance
